Common to all, as to test: Tyrosine fluorescence quenching titration
Common to all, as to type: binding

One assay addresses T1, MaxRH (Homo sapiens, UniProt P61244, K77E/M74V/Q72L/R75Q/R76A/Y73S).
T1 construct: 6xHis tag + TEV site (N, cleaved yes); made in house; host or cells: E. coli BL21(DE3) pLysS
To be noted: for Kd: 1 µM MaxRH, read-out: dissociation constant (KD). How it is done:
(§1) The lyophilized protein (or peptide) was reconstituted in ultrapure water and incubated to room temperature for at least 1 hr. The protein or peptide was then sterile filtered using a pre-wet 0.2 μm polyethylene sulfone (PES) filter (VWR), and the concentration was determined by the absorbance at 274 nm using the extinction coefficient per tyrosine of ε274 = 1470 M^−1cm^−1. The final stock concentrations ranged from 50 to 100 μM.
(§2) For excess 34RH tyrosine fluorescence quenching experiments, samples were prepared with the following buffer components: sterile filtered water, 1xPBS (137 mM NaCl, 2.7 mM KCl, 4.3 mM Na2HPO4, 1.4 mM KH2PO4), and 5% total DMSO. The pH of the buffer was adjusted to 6 or 7.4 depending on the experiment performed. Three separate samples were prepared in 1xPBS and 5% total DMSO: one containing 50 μM 34RH alone, one containing 1 μM of protein and 50 μM 34RH, and one containing 1 μM protein alone. For the 34RH containing samples, the compound was delivered from a 1 mM DMSO stock. These samples were then serially diluted two-fold from 50 μM 34RH to 1.56 μM 34RH. All samples for fluorescence measurements maintained a final 5% DMSO concentration.
(§3) The samples were incubated for at least 15 min before fluorescence was measured. The samples were excited at 274 nm, and the emission spectra were obtained from 285 to 340 nm using 5 nm excitation and 5 nm emission slits using a Horiba Fluoromax 4 fluorometer. The fluorescence data were background corrected using buffer (for samples with only protein) or small molecule (for samples containing protein and 34RH) (Figure S4). The absorbance due to 34RH and protein at the excitation and emission wavelengths can suppress the observed fluorescence intensity to give rise to the inner filter effect. To account for this suppression, we corrected the fluorescence signals using Equation (3). This correction accounted for the fluorescence suppression due to the absorbance of both 34RH and the protein [47]. (3) Fcorr=Fobs∗ 10^Aex+ Aem/2
(§4) Here, the corrected fluorescence is Fcorr, the background-subtracted observed fluorescence is Fobs, and Aex and Aem are the total absorbance at the excitation and emission wavelengths, respectively. The amount of protein fluorescence quenched by 34RH at a particular concentration was calculated using Fcorr at λ = 304 nm (Equation (4)). (4) Fraction Quenched=1−Fcorr304nm of Protein +34RH/ Fcorr304nm of Protein only
(§5) The quenching data were fit to a Langmuir binding isotherm using Equation (5), from which the dissociation constant (KD) was obtained. Here, Qmax describes the maximum fraction quenched, [L]T is the total 34RH concentration, and [P]T is the total protein concentration. The total concentration of the protein was 1 µM for all fluoresce experiments conducted at a constant protein concentration. (5) Fraction Quenched=Qmax∗([L]T+P]T+ KD−(L]T+P]T+ KD)^2−4 ∗ L]T ∗ P]T/2∗[L]T

The next assay deals with T2, P21 Max (Homo sapiens, UniProt P61244).
T2 construct: 6xHis tag + TEV site (N, cleaved yes); made in house; host or cells: E. coli BL21(DE3) pLysS
T2 sequence (P61244 1-151 isoform P61244-2): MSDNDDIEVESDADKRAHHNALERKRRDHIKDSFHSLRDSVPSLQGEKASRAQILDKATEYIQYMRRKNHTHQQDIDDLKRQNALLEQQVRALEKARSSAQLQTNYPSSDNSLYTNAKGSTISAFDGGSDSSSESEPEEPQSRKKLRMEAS
To be noted: 1 µM P21 Max, pH 7.4. How it is done:
as §1, §2, §3, §4, §5

Another assay has as its target T3, Myc402–412 peptide (Homo sapiens, UniProt P01106).
T3 construct: purchased Genscript; host or cells: solid phase peptide synthesis
How it is done:
as §1, §2, §3, §4, §5

A further assay has as its target T4, P22 Max (Homo sapiens, UniProt P61244).
T4 construct: 6xHis tag + TEV site (N, cleaved yes); made in house; host or cells: E. coli BL21(DE3) pLysS
Conditions: 1 µM P22 Max. How it is done:
as §1, §2, §3, §4, §5

For another assay, the target named is T5, Myc353–437 E410N (Homo sapiens, UniProt P01106, E425N).
T5 construct: 6xHis tag + TEV site (N, cleaved yes); made in house; host or cells: E. coli BL21(DE3) pLysS
T5 sequence (P01106 368-452 E425N): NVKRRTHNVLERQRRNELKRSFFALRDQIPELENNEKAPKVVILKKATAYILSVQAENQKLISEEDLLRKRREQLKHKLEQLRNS
To be noted: Myc353–437 E410N mutant. How it is done:
as §1, §2, §3, §4, §5

A further assay has as its target T6, MaxRH-N78E (Homo sapiens, UniProt P61244, K77E/M74V/N78E/Q72L/R75Q/R76A/Y73S).
T6 construct: 6xHis tag + TEV site (N, cleaved yes); made in house; host or cells: E. coli BL21(DE3) pLysS
Conditions: MaxRH-N78E mutant. How it is done: as §1, §2, §3, §4, §5

The target in a further assay is T7, Myc353–437 A401E (Homo sapiens, UniProt P01106, A416E).
T7 construct: We constructed Myc353–437 A401E to determine if the same flanking residue would be permissive; 6xHis tag + TEV site (N, cleaved yes); made in house; host or cells: E. coli BL21(DE3) pLysS
T7 sequence (P01106 368-452 A416E): as the sequence (P01106 368-452 E425N) above, with A49E, N58E counted along it
Conditions: Myc353–437 A401E mutant. How it is done:
as §1, §2, §3, §4, §5

Read-outs that look alike come from different tables or passages of the source.

T1 sequence (P61244 whole entry Q72L/Y73S/M74V/R75Q/R76A/K77E): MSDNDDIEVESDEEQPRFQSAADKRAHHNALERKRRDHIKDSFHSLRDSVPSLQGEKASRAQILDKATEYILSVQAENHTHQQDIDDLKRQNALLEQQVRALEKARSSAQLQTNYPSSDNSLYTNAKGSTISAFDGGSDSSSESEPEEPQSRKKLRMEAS
T4 sequence (P61244 whole entry): as the sequence (P61244 whole entry Q72L/Y73S/M74V/R75Q/R76A/K77E) above, with L72Q, S73Y, V74M, Q75R, A76R, E77K counted along it
T6 sequence (P61244 whole entry Q72L/Y73S/M74V/R75Q/R76A/K77E/N78E): as the sequence (P61244 whole entry Q72L/Y73S/M74V/R75Q/R76A/K77E) above, with N78E counted along it

For the molecule `O=C1NC(=S)S/C1=C\c1ccc(C(=O)O)cc1` [34RH, (Z)-4-((4-oxo-2-thioxothiazolidin-5-ylidene)methyl)benzoic acid], the Kd on MaxRH (pH 6) came to 9.1 ± 3.9 µM; on MaxRH (pH 7.4), 23.4 ± 1.1 µM; on Myc402–412 peptide (1 µM Myc402–412 peptide, excess 34RH, Langmuir binding isotherm), 11.5 ± 1.2 µM. Further, the “affinity weaker than in the Myc context” value at MaxRH (MaxRH vs Myc353–437, pH 7.4) is “about 6 fold”. For the same molecule, on MaxRH (MaxRH vs Myc402–412 peptide, pH 7.4), the “affinity weaker relative to the peptide” value is listed as about 2 fold. At MaxRH (pH 6 vs pH 7.4), the “improvement of binding to MaxRH at pH 6” value was determined as 2.5 fold. The “titratable tyrosine fluorescence quenching (binding)” value is recorded as “no titratable quenching” at P21 Max, “no titratable quenching” on P22 Max (pH 6 (monomeric)) and “does not exhibit titratable quenching” on P22 Max (pH 7.4). On Myc402–412 peptide, the “change in affinity, Myc402–412 peptide vs Myc353–437” value came to 3 fold. Moreover, on Myc402–412 peptide, the “difference in affinity between Myc353–437 and Myc402–412 contexts” value was “less than 0.7 kcal mol^−1”. Moreover, the “binding by tyrosine quenching” value on Myc353–437 E410N is “eliminated binding”; at Myc353–437 A401E, “no detectable binding”. Further, the “binding by titratable tyrosine quenching” value on MaxRH-N78E is given as “complete loss of observable binding”.

The Kd is the equilibrium constant for the complex coming apart.

These data come from paper PMC9775153, “Portability of a Small-Molecule Binding Site between Disordered Proteins” (Biomolecules, 2022).
